33 molecules from patent publication US20090325964A1, “Piperazine Metabotropic Glutamate Receptor 5 (MGLUR5) Negative Allosteric Modulators For Anxiety/Depression” (Wyeth, priority 2008, published 2009) can be followed below.

One may read the Ki as a measure of affinity in units of concentration, obtained from inhibition or displacement. As a reminder, the IC50 is the concentration needed to halve the response being measured.

The target in assay [1] is T1, rat mGluR5 receptor (Rattus norvegicus, UniProt P31424).
T1 construct: expressed in transfected cells; host or cells: HEK-293
As to the kind of experiment: [3H]-MPEP displacement binding assay, HEK-293 cell membranes expressing rat mGluR5. The following applies: [3H]-MPEP displacement, rat mGluR5; read-out: Median Ki. The essentials:
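Membranes from HEK-293 cells expressing rat mGluR5 (12-25 μg protein), incubated 60 min at room temperature with 4 nM [3H]-MPEP in 50 mM Tris pH 7.5, then filtered. Nonspecific binding defined with 10 μM MPEP.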

The target of assay [2] is mGluR5 (Rattus norvegicus, UniProt P31424). As to the kind of experiment: IC50 column under 'Biological Activity' (assay not identified in the shown text; not the binding Ki).
Chain of mGluR5 (P31424 21-1203): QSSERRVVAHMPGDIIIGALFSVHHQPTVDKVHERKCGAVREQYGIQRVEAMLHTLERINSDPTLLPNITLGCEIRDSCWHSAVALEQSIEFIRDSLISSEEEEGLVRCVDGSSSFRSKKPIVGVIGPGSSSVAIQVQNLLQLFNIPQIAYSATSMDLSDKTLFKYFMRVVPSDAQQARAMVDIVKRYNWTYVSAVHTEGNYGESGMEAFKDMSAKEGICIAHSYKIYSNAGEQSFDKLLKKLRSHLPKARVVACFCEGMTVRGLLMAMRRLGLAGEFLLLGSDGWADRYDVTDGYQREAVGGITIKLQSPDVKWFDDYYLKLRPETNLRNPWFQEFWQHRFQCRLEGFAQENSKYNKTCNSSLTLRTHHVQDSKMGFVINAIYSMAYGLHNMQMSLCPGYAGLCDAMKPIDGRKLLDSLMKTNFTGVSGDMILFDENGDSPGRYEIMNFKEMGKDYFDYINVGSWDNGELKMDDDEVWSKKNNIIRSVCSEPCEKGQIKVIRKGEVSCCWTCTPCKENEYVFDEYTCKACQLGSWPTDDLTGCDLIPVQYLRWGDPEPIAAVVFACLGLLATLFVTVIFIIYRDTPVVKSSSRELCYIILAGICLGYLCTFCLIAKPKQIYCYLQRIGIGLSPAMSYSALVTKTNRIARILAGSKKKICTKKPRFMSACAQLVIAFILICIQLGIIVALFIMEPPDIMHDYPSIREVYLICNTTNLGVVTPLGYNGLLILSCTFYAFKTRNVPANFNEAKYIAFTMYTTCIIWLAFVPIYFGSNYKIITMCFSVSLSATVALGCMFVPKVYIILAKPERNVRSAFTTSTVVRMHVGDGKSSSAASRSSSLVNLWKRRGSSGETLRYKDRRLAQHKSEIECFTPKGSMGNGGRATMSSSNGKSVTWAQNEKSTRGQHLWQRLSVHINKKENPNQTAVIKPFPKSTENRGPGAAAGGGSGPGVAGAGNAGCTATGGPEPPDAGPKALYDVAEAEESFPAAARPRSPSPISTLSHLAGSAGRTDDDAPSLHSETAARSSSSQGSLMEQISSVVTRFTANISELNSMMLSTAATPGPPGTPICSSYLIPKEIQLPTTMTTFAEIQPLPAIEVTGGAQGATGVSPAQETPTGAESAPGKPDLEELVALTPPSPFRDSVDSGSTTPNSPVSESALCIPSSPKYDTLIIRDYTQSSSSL

T1 sequence (P31424 21-1203): as above

With `COc1ccc(C(=O)N2CCN(c3ccccc3C)CC2)cc1C#Cc1ccccn1` [Compound 221, 1-[4-methoxy-3-(pyridin-2-ylethynyl)benzoyl]-4-(2-methylphenyl)piperazine], the inhibition constant (Ki) in assay [1] worked out at 0.1 µM. This molecule also returned a half-maximal inhibitory concentration (IC50) in assay [2] of over 1 µM.

With `COc1ccc(C(=O)N2CCN(c3ccc(C)cc3)CC2)cc1C#Cc1ccccn1` [Compound 222, 1-[4-methoxy-3-(pyridin-2-ylethynyl)benzoyl]-4-(4-methylphenyl)piperazine], the Ki in assay [1] amounted to 0.074 µM. In assay [2], this molecule gave a concentration for half-maximal inhibition (IC50) of over 1 µM.

On to `COc1ccc(C(=O)N2CCN(c3cccc(F)c3)CC2)cc1C#Cc1ccccn1` [Compound 223, 1-(3-fluorophenyl)-4-[4-methoxy-3-(pyridin-2-ylethynyl)benzoyl]piperazine], for which, in assay [1], the Ki came to 0.01 µM. In assay [2], the IC50 came out at 0.103 µM.

Regarding `COc1ccc(C(=O)N2CCN(S(=O)(=O)c3ccc(Cl)s3)CC2)cc1C#Cc1ccccn1` [Compound 225, 1-[(5-chloro-2-thienyl)sulfonyl]-4-[4-methoxy-3-(pyridin-2-ylethynyl)benzoyl]piperazine], in assay [1], the Ki is 0.051 µM. This molecule showed a 50% inhibitory concentration (IC50) in assay [2] of over 1 µM.

With `COc1ccc(C(=O)N2C[C@@H]3C[C@@H]2CN3c2ccc(C)cc2)cc1C#Cc1ccccn1` [Compound 226, (1R,4S)-2-[4-methoxy-3-(pyridin-2-ylethynyl)benzoyl]-5-(4-methylphenyl)-2,5-diazabicyclo[2.2.1]heptane], in assay [1], the Ki was 0.277 µM. The same molecule returned an IC50 in assay [2] of over 1 µM.

Regarding `COc1ccc(C(=O)N2C[C@@H]3C[C@@H]2CN3c2ccc(F)cc2)cc1C#Cc1ccccn1` [Compound 227, (1S,4R)-2-(4-fluorophenyl)-5-[4-methoxy-3-(pyridin-2-ylethynyl)benzoyl]-2,5-diazabicyclo[2.2.1]heptane], the inhibition constant (Ki) in assay [1] amounted to 0.071 µM. The molecule also displayed an IC50 in assay [2] of over 1 µM.

Take `COc1ccc(C(=O)N2CCN(c3ccc([N+](=O)[O-])cn3)CC2)cc1C#Cc1ccccn1` [Compound 229, 1-[4-methoxy-3-(pyridin-2-ylethynyl)benzoyl]-4-(5-nitropyridin-2-yl)piperazine]: the Ki in assay [1] stood at 0.056 µM. The same molecule displayed a half-inhibitory concentration (IC50) in assay [2] of over 1 µM.

Take `COc1ccc(C(=O)N2CCN(c3ccc(F)cc3)CC2)cc1C#Cc1ccccn1` [Compound 231, 1-(4-fluorophenyl)-4-[4-methoxy-3-(pyridin-2-ylethynyl)benzoyl]piperazine]: the inhibition constant (Ki) in assay [1] is 0.023 µM. In addition, the IC50 in assay [2] turned out to be 0.244 µM.

For the molecule `COc1ccc(C(=O)N2CCN(c3ccc([N+](=O)[O-])cc3)CC2)cc1C#Cc1ccccn1` [Compound 232, 1-[4-methoxy-3-(pyridin-2-ylethynyl)benzoyl]-4-(4-nitrophenyl)piperazine], in assay [1], the Ki came to 0.096 µM. Besides, the IC50 in assay [2] is over 1 µM.

On to `COc1ccc(N2CCN(C(=O)c3ccc(OC)c(C#Cc4ccccn4)c3)CC2)cc1` [Compound 233, 1-(4-methoxyphenyl)-4-[4-methoxy-3-(pyridin-2-ylethynyl)benzoyl]piperazine], for which the inhibition constant Ki in assay [1] is 0.066 µM. The concentration for half-maximal inhibition (IC50) in assay [2] was over 1 µM.

`COc1ccc(C(=O)N2CCN(S(=O)(=O)c3ccc4c(c3)OCCO4)CC2)cc1C#Cc1ccccn1` [Compound 235, 1-(2,3-dihydro-1,4-benzodioxin-6-ylsulfonyl)-4-[4-methoxy-3-(pyridin-2-ylethynyl)benzoyl]piperazine]: the Ki in assay [1] came to 0.075 µM. Besides, the IC50 in assay [2] was over 1 µM.

In the case of `COc1ccc(C(=O)N2CCN(c3ccncc3)CC2)cc1C#Cc1ccccn1` [Compound 236, 1-[4-methoxy-3-(pyridin-2-ylethynyl)benzoyl]-4-pyridin-4-ylpiperazine], the Ki in assay [1] amounted to 0.078 µM. The molecule further returned an IC50 in assay [2] of over 1 µM.

For the molecule `COc1ccc(C(=O)N2CCN(c3ccc(C(C)=O)cc3)CC2)cc1C#Cc1ccccn1` [Compound 237, 1-(4-{4-[4-methoxy-3-(pyridin-2-ylethynyl)benzoyl]piperazin-1-yl}phenyl)ethanone], the Ki in assay [1] was 0.021 µM. The same molecule displayed a concentration for half-maximal inhibition (IC50) in assay [2] of 0.119 µM.

With `COc1cccc(N2CCN(C(=O)c3ccc(OC)c(C#Cc4ccccn4)c3)CC2)c1` [Compound 241, 1-(3-methoxyphenyl)-4-[4-methoxy-3-(pyridin-2-ylethynyl)benzoyl]piperazine], the Ki in assay [1] came to 0.015 µM. In assay [2], the IC50 was 0.081 µM.

Take `COc1ccc(C(=O)N2CCN(S(=O)(=O)c3ccc(Cl)cc3)CC2)cc1C#Cc1ccccn1` [Compound 243, 1-[(4-chlorophenyl)sulfonyl]-4-[4-methoxy-3-(pyridin-2-ylethynyl)benzoyl]piperazine]: the inhibition constant (Ki) in assay [1] was 0.014 µM. The IC50 in assay [2] worked out at 0.154 µM.

Take `COc1ccc(C(=O)N2CCN(C(=O)c3ccccc3)CC2)cc1C#Cc1ccccn1` [Compound 244, 1-benzoyl-4-[4-methoxy-3-(pyridin-2-ylethynyl)benzoyl]piperazine]: in assay [1], the Ki was 0.054 µM. In assay [2], this molecule yielded an IC50 of 0.237 µM.

On to `CCS(=O)(=O)N1CCN(C(=O)c2ccc(OC)c(C#Cc3ccccn3)c2)CC1` [Compound 245, 1-(ethylsulfonyl)-4-[4-methoxy-3-(pyridin-2-ylethynyl)benzoyl]piperazine], for which, in assay [1], the inhibitory constant (Ki) was found to be 0.231 µM. In addition, the concentration for half-maximal inhibition (IC50) in assay [2] was 0.344 µM.

In the case of `COc1ccc(C(=O)N2CCN(c3nccs3)CC2)cc1C#Cc1ccccn1` [Compound 247, 1-[4-methoxy-3-(pyridin-2-ylethynyl)benzoyl]-4-(1,3-thiazol-2-yl)piperazine], the Ki in assay [1] was 0.017 µM. In addition, the IC50 in assay [2] worked out at 0.085 µM.

Turning to `COc1ccc(C(=O)N2CCN(C(=O)C3CC3)CC2)cc1C#Cc1ccccn1` [Compound 248, 1-(cyclopropylcarbonyl)-4-[4-methoxy-3-(pyridin-2-ylethynyl)benzoyl]piperazine], the Ki in assay [1] stood at 0.083 µM. In assay [2], this molecule gave a half-maximal inhibitory concentration (IC50) of over 1 µM.

In the case of `COc1ccc(C(=O)N2CCN(c3ccccc3)CC2C)cc1C#Cc1ccccn1` (stereo not drawn) [Compound 250, 1-[4-methoxy-3-(pyridin-2-ylethynyl)benzoyl]-2-methyl-4-phenylpiperazine], the inhibition constant Ki in assay [1] came to 0.024 µM. The molecule also came in with an IC50 in assay [2] of 0.096 µM.

For the molecule `COc1ccc(C(=O)N2CCN(c3noc4ccccc34)CC2)cc1C#Cc1ccccn1` [Compound 251, 3-{4-[4-methoxy-3-(pyridin-2-ylethynyl)benzoyl]piperazin-1-yl}-1,2-benzisoxazole], in assay [1], the Ki came to 0.006 µM. The molecule also gave an IC50 in assay [2] of 0.025 µM.

Regarding `COc1ccc(C(=O)N2CCN(c3ccc(C#N)cn3)CC2)cc1C#Cc1ccccn1` [Compound 252, 6-{4-[4-methoxy-3-(pyridin-2-ylethynyl)benzoyl]piperazin-1-yl}nicotinonitrile], the Ki in assay [1] amounted to 0.033 µM. In addition, the half-maximal inhibitory concentration (IC50) in assay [2] was determined as 0.192 µM.

On to `COc1ccc(C(=O)N2CCN(S(=O)(=O)c3ccc(C)cc3)CC2)cc1C#Cc1ccccn1` [Compound 253, 1-[4-methoxy-3-(pyridin-2-ylethynyl)benzoyl]-4-[(4-methylphenyl)sulfonyl]piperazine], for which the Ki in assay [1] was 0.021 µM. The same molecule came in with an IC50 in assay [2] of 0.18 µM.

As for `COc1ccc(C(=O)N2CCN(c3cccc(Cl)n3)CC2)cc1C#Cc1ccccn1` [Compound 255, 1-(6-chloropyridin-2-yl)-4-[4-methoxy-3-(pyridin-2-ylethynyl)benzoyl]piperazine], in assay [1], the Ki turned out to be 0.009 µM. Also, in assay [2], the concentration for half-maximal inhibition (IC50) worked out at 0.129 µM.

On to `COc1ccc(C(=O)N2CCN(c3nc4ccccc4o3)CC2)cc1C#Cc1ccccn1` [Compound 257, 2-{4-[4-methoxy-3-(pyridin-2-ylethynyl)benzoyl]piperazin-1-yl}-1,3-benzoxazole], for which the Ki in assay [1] amounted to 0.038 µM. The IC50 in assay [2] is 0.11 µM.

Turning to `COc1ccc(C(=O)N2CCN(C(=O)c3ccco3)CC2)cc1C#Cc1ccccn1` [Compound 258, 1-(2-furoyl)-4-[4-methoxy-3-(pyridin-2-ylethynyl)benzoyl]piperazine], the Ki in assay [1] was 0.041 µM. Besides, the concentration for half-maximal inhibition (IC50) in assay [2] stood at 0.095 µM.

In the case of `COc1ccc(C(=O)N2CCN(Cc3ccc4c(c3)OCO4)CC2)cc1C#Cc1ccccn1` [Compound 259, 1-(1,3-benzodioxol-5-ylmethyl)-4-[4-methoxy-3-(pyridin-2-ylethynyl)benzoyl]piperazine], in assay [1], the Ki stood at 0.038 µM. In assay [2], this molecule had an IC50 of 0.157 µM.

Take `COc1ccc(C(=O)N2CCN(c3ncc(Br)cn3)CC2)cc1C#Cc1ccccn1` [Compound 262, 5-bromo-2-{4-[4-methoxy-3-(pyridin-2-ylethynyl)benzoyl]piperazin-1-yl}pyrimidine]: the inhibition constant Ki in assay [1] came out at 0.017 µM. This molecule registered a half-maximal inhibitory concentration (IC50) in assay [2] of 0.148 µM.

As to `COc1ccc(C(=O)N2CCN(C(=O)c3ccc(OC)c(C#Cc4ccccn4)c3)CC2)cc1` [Compound 265, 1-(4-methoxybenzoyl)-4-[4-methoxy-3-(pyridin-2-ylethynyl)benzoyl]piperazine], in assay [1], the inhibition constant Ki stood at 0.054 µM. This molecule yielded an IC50 in assay [2] of over 1 µM.

Turning to `COc1ccc(C(=O)N2CCN(Cc3ccccc3F)CC2)cc1C#Cc1ccccn1` [Compound 266, 1-(2-fluorobenzyl)-4-[4-methoxy-3-(pyridin-2-ylethynyl)benzoyl]piperazine], the inhibition constant (Ki) in assay [1] was determined as 0.033 µM. Besides, in assay [2], the IC50 is over 1 µM.

`COc1ccc(C(=O)N2CCN(Cc3cccc(F)c3)CC2)cc1C#Cc1ccccn1` [Compound 267, 1-(3-fluorobenzyl)-4-[4-methoxy-3-(pyridin-2-ylethynyl)benzoyl]piperazine]: the inhibitory constant (Ki) in assay [1] was determined as 0.057 µM. The molecule further gave a concentration for half-maximal inhibition (IC50) in assay [2] of 0.167 µM.

`COc1ccc(C(=O)N2CCN(Cc3ccc(F)cc3)CC2)cc1C#Cc1ccccn1` [Compound 268, 1-(4-fluorobenzyl)-4-[4-methoxy-3-(pyridin-2-ylethynyl)benzoyl]piperazine]: in assay [1], the inhibition constant (Ki) amounted to 0.057 µM. Further, the IC50 in assay [2] was found to be 0.219 µM.

With `COc1ccc(C(=O)N2CCN(Cc3cccc(Cl)c3)CC2)cc1C#Cc1ccccn1` [Compound 274, 1-(3-chlorobenzyl)-4-[4-methoxy-3-(pyridin-2-ylethynyl)benzoyl]piperazine], the Ki in assay [1] is 0.089 µM. This molecule also yielded a half-maximal inhibitory concentration (IC50) in assay [2] of 0.316 µM.
